This is an account of results in ChEMBL document CHEMBL3045894, “GLUTATHIONE SYNTHESIS IN FILARIAL WORMS: AN ATTRACTIVE TARGET FOR THE DESIGN AND SYNTHESIS OF NEW ANTIFILARIALS” (Med Chem Res, 2004).

Active and inactive are the calls of the source. No cut-off for these calls is given here.

The target of one assay is T1, Probable glutathione reductase 2 (Caenorhabditis elegans) (UniProt P30635).
T1 sequence (whole entry): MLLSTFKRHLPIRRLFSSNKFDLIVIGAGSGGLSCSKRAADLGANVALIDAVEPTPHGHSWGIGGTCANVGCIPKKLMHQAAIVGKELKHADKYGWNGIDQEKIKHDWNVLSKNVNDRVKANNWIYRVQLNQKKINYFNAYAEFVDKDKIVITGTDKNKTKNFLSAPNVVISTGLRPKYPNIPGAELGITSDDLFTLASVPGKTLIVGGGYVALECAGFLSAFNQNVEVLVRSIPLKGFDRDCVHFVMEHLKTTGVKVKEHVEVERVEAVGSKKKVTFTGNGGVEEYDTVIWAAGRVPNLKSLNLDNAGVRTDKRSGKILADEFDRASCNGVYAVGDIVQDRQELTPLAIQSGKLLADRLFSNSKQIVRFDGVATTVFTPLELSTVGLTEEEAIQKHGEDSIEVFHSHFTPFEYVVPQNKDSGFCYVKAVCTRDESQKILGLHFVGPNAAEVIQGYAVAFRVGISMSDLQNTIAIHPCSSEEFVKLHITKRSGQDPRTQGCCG
Put plainly: Inhibition of Setaria cervi glutathione reductase at 2 to 200 uM.
In the case of `CN(C)c1ccc2nc3ccc(=[N+](C)C)cc-3sc2c1`, the inhibition (usually how much of the control response was suppressed) was found to be 24%.

Another assay concerns the target T2, Glutathione reductase, mitochondrial (Mus musculus) (UniProt P47791).
T2 sequence (whole entry): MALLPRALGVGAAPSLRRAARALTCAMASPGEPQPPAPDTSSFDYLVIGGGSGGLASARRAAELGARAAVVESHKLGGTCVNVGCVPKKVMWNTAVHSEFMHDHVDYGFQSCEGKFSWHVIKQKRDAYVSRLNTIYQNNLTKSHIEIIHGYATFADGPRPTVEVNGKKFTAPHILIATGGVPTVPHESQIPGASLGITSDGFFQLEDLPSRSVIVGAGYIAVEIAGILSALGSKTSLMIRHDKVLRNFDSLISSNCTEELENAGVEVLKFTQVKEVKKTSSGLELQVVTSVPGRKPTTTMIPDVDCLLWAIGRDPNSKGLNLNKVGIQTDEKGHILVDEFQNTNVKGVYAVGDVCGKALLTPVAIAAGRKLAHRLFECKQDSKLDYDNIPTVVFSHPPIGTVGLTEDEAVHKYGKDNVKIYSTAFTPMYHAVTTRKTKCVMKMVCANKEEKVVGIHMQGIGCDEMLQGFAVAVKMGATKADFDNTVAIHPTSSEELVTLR
Kind of assay: Inhibition of Mus musculus (mouse) glutathione reductase isolated from liver at 200 uM.
`CCOC(=O)CC(Nc1ccco1)[C@H]1O[C@@H]2OC(C)(C)O[C@@H]2[C@H]1OCc1ccccc1` (stereo partly drawn): the inhibition result is “inactive”.

With `CC1(C)O[C@H]2O[C@H]([C@@H]3CC(=O)N(Cc4ccccc4)C(=O)N3Cc3ccccc3)[C@H](OCc3ccccc3)[C@H]2O1`, the inhibition result is “inactive”.

As for `CC(=O)c1cccc(N2C(=O)[C@H](CC(C)C)N(C[C@H]3O[C@@H]4OC(C)(C)O[C@@H]4[C@H]3OCc3ccccc3)C2=O)c1`, the inhibition entry is “inactive”.

For `CCOC(=O)CC(Nc1ccco1)[C@H]1O[C@@H]2OC(C)(C)O[C@@H]2[C@H]1OC` (stereo partly drawn), the inhibition result was “inactive”.

As for `CCCCCCCNC(CC(=O)NO)[C@H]1O[C@@H]2OC(C)(C)O[C@@H]2[C@H]1OCc1ccccc1` (stereo partly drawn), the inhibition result was “inactive”.

For the molecule `COc1ccc(CN2C(=O)N(c3ccc(C(C)=O)cc3)C(=O)C[C@H]2[C@H]2O[C@@H]3OC(C)(C)O[C@@H]3[C@H]2OCc2ccccc2)cc1`, the inhibition entry was “inactive”.

For `CCCc1nccn1C(CC(=O)OCC)[C@H]1O[C@@H]2OC(C)(C)O[C@@H]2[C@H]1OC` (stereo partly drawn), the inhibition result was “inactive”.

Consider `CO[C@@H]1[C@H]2OC(C)(C)O[C@H]2O[C@H]1C(CC(=O)O)NCCC(C)CC(C)C` (stereo partly drawn), for which the inhibition result is “inactive”.

As for `CC1(C)O[C@H]2O[C@H](C(CC(=O)NO)N3CCCCC3)[C@H](OCc3ccccc3)[C@H]2O1` (stereo partly drawn), the inhibition entry was “inactive”.

Consider `CCOC(=O)C[C@@H](Nc1ccccc1O)[C@H]1O[C@@H]2OC(C)(C)O[C@@H]2[C@H]1OC`, for which the inhibition result is “inactive”.

Take `CCCCCCCNC(CC(=O)O)[C@@H]1O[C@@H]2OC(C)(C)O[C@@H]2[C@H]1OC` (stereo partly drawn): the inhibition result is “inactive”.

For `CCCCCCCN[C@@H](CC(=O)OCC)[C@@H]1O[C@@H]2OC(C)(C)O[C@@H]2[C@H]1OC`, the inhibition entry is “inactive”.

In the case of `CC1(C)O[C@H]2O[C@H](C(CC(=O)NO)NCc3ccccc3)[C@H](OCc3ccccc3)[C@H]2O1` (stereo partly drawn), the inhibition entry was “inactive”.

As to `CCOC(=O)C[C@H](C[C@H]1O[C@@H]2OC(C)(C)O[C@@H]2[C@H]1OC)NCc1ccccc1O`, the inhibition entry is “inactive”.

With `CCOC(=O)CC([C@H]1O[C@@H]2OC(C)(C)O[C@@H]2[C@H]1OC)N1CCC[C@H]1C(=O)OCC1c2ccccc2-c2ccccc21` (stereo partly drawn), the inhibition entry is “inactive”.

Turning to `CCCCCCCCCCCCNC(CC(=O)NO)[C@H]1O[C@@H]2OC(C)(C)O[C@@H]2[C@H]1OCc1ccccc1` (stereo partly drawn), the inhibition entry is “inactive”.

Take `CCCCCCCCCCCCCCCCNC(CC(=O)NO)[C@H]1O[C@@H]2OC(C)(C)O[C@@H]2[C@H]1OC` (stereo partly drawn): the inhibition came out at 71%.

`CO[C@@H]1[C@H]2OC(C)(C)O[C@H]2O[C@@H]1C1CC(=O)N(Cc2ccccc2)C(=O)N1CCC(C)CC(C)C` (stereo partly drawn): the inhibition entry was “inactive”.

As to `CCOC(=O)CC([C@H]1O[C@@H]2OC(C)(C)O[C@@H]2[C@H]1OC)N(CCC(C)CC(C)C)C(=O)NCc1ccccc1` (stereo partly drawn), the inhibition result is “inactive”.

A further assay concerns the target T3, Glutamate--cysteine ligase catalytic subunit (Mus musculus) (UniProt P97494).
T3 sequence (whole entry): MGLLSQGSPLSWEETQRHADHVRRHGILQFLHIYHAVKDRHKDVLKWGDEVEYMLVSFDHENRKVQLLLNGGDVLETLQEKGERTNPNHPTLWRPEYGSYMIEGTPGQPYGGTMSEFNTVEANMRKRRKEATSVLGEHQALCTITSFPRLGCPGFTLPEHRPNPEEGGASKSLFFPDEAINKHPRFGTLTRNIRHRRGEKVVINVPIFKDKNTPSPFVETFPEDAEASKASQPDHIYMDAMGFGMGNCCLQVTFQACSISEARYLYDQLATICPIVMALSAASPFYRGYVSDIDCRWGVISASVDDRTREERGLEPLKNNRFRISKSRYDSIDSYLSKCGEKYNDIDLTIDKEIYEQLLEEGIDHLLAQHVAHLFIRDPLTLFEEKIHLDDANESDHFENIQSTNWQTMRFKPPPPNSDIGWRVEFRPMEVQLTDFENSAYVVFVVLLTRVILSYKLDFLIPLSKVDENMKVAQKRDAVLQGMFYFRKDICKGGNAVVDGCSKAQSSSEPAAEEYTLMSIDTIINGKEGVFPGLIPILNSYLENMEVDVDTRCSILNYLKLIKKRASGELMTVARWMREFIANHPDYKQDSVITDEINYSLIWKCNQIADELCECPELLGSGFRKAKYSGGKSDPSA
Kind of assay: Inhibition of Mus musculus (mouse) glutamate cysteine ligase isolated from liver at 200 uM.
Take `CO[C@@H]1[C@H]2OC(C)(C)O[C@H]2O[C@@H]1[C@@H]1CC(=O)N(Cc2ccccc2)C(=O)N1Cc1ccccc1`: the inhibition entry is “inactive”.

Consider `CO[C@@H]1[C@H]2OC(C)(C)O[C@H]2O[C@@H]1[C@H](CC(N)=O)N(Cc1ccccc1)C(=O)Nc1cccc(C(C)=O)c1`, for which the inhibition stood at 18%.

In another assay the target is T4, Glutamate--cysteine ligase (Onchocerca volvulus) (UniProt Q9NFN6).
T4 sequence (whole entry): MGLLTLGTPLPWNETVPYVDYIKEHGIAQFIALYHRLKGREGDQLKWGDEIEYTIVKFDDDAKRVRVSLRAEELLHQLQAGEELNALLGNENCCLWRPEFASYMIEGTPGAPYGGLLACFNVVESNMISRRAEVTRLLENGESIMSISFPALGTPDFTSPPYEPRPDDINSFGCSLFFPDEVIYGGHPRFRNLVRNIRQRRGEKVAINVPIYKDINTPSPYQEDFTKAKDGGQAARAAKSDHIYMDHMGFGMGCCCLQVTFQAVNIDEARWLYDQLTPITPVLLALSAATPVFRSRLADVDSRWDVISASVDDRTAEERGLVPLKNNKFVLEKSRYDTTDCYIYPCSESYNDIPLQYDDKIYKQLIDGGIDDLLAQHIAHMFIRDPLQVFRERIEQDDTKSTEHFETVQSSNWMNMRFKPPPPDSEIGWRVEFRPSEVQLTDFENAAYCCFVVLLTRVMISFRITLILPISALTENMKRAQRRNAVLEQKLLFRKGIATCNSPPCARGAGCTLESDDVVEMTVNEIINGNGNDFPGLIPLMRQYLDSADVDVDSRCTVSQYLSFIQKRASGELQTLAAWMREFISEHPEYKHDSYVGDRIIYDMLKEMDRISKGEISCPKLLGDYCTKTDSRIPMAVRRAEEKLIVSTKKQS
Put plainly: Inhibition of Setaria cervi glutamate cysteine ligase at 0.25 to 200 uM.
Regarding `NCCSSCCN`, the inhibition amounted to 19%.
